The target of assay [1] is T1, E. coli WT DHFR (Escherichia coli, UniProt P0ABQ4).
T1 construct: made in house
T1 sequence (P0ABQ4 1-159): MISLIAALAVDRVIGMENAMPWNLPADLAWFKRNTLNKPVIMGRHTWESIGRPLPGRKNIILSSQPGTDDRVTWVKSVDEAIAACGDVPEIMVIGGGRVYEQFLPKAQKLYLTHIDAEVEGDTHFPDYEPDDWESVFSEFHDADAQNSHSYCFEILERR
Put plainly: biochemical. The settings on record: for Ki: Ki value, E. coli WT DHFR, Ki converted from IC50; for inhibition at 200 µM: read-out: inhibition of DHFR catalytic activity.

Assay [2] has as its target T2, E. coli DHFR P21L mutant (Escherichia coli, UniProt P0ABQ4, P21L).
T2 construct: made in house
T2 sequence (P0ABQ4 1-159 P21L): T1 sequence (P0ABQ4 1-159) with P21L
Description: biochemical. The settings on record: for Ki: Ki value, E. coli P21L DHFR, Ki converted from IC50; for inhibition at 200 µM: read-out: inhibition of DHFR catalytic activity.

Assay [3] concerns the target T3, E. coli DHFR A26T mutant (Escherichia coli, UniProt P0ABQ4, A26T).
T3 construct: made in house
T3 sequence (P0ABQ4 1-159 A26T): T1 sequence (P0ABQ4 1-159) with A26T
Put plainly: biochemical. The settings on record: for Ki: Ki value, E. coli A26T DHFR, Ki converted from IC50; for inhibition at 200 µM: read-out: inhibition of DHFR catalytic activity.

The target in assay [4] is T4, E. coli DHFR L28R mutant (Escherichia coli, UniProt P0ABQ4, L28R).
T4 construct: made in house
T4 sequence (P0ABQ4 1-159 L28R): T1 sequence (P0ABQ4 1-159) with L28R
Put plainly: biochemical. The settings on record: for Ki: Ki value, E. coli L28R DHFR, Ki converted from IC50; for inhibition at 200 µM: read-out: inhibition of DHFR catalytic activity.

Assay [5] deals with T5, E. coli DHFR P21L-A26T mutant (Escherichia coli, UniProt P0ABQ4, A26T/P21L).
T5 construct: made in house
T5 sequence (P0ABQ4 1-159 P21L/A26T): T1 sequence (P0ABQ4 1-159) with P21L, A26T
Description: biochemical.

The target of assay [6] is T6, E. coli DHFR P21L-L28R mutant (Escherichia coli, UniProt P0ABQ4, L28R/P21L).
T6 construct: made in house
T6 sequence (P0ABQ4 1-159 P21L/L28R): T1 sequence (P0ABQ4 1-159) with P21L, L28R
Put plainly: biochemical.

Assay [7] deals with T7, E. coli DHFR A26T-L28R mutant (Escherichia coli, UniProt P0ABQ4, A26T/L28R).
T7 construct: made in house
T7 sequence (P0ABQ4 1-159 A26T/L28R): T1 sequence (P0ABQ4 1-159) with A26T, L28R
Description: biochemical.

The target of assay [8] is T8, Human DHFR (Homo sapiens, UniProt P00374).
T8 construct: purchased Sigma Aldrich
Put plainly: biochemical. The format is biochemical. The settings on record: for Ki: Human WT DHFR, NT means no inhibition was detected at the maximal compound concentration tested.

Assay [9] concerns E. coli strain with chromosomal P21L DHFR. Description: microbe, parasite or virus in culture. Format: cell-based. The settings on record: Escherichia coli, read-out: Bacterial growth inhibition IC50.
In assay [10] the test system is E. coli strain with chromosomal A26T DHFR. Put plainly: microbe, parasite or virus in culture. Format: cell-based. The settings on record: Escherichia coli, read-out: Bacterial growth inhibition IC50.
For assay [11], the system named is E. coli strain with chromosomal L28R DHFR. Put plainly: microbe, parasite or virus in culture. Format: cell-based. The settings on record: for IC50: Escherichia coli, read-out: Bacterial growth inhibition IC50.
Assay [12] relates to WT E. coli strain. Description: microbe, parasite or virus in culture. The settings on record: Escherichia coli.
Assay [13] deals with CD15-3-evolved E. coli strains. Description: microbe, parasite or virus in culture. Format: cell-based. The settings on record: Escherichia coli.
Assay [14] deals with E. coli BW27783. The format is cell-based.
Assay [15] has as its system WT E. coli strain. The settings on record: read-out: Bacterial growth inhibition IC50; WT (naive) E. coli strain, M9 medium, 37°C.
In assay [16] the test system is WT and evolved E. coli cells. Put plainly: DIC imaging of cell length. The settings on record: 42°C.
[17] abbreviates: single fixed concentration of 200 µM, WT DHFR.
The mark [18] stands for this setting: single fixed concentration of 200 µM, P21L DHFR.
[19] abbreviates: single fixed concentration of 200 µM, A26T DHFR.
[20] abbreviates: single fixed concentration of 200 µM, L28R DHFR.
The mark [21] stands for this setting: read-out: Bacterial growth inhibition IC50, WT (naive) E. coli strain, M9 medium, 37°C.

Changes are numbered by the printed parent chain. Values joined by “and” are separate entries in the source; they are usually repeats but may differ in a detail not shown here. Equal entries are not always repeated. Where two headings read alike, the source gives them in different places. A value given as a limit tells only on which side of the number the result lay.

This is an account of results in article PMC8331180, “Development of antibacterial compounds that constrain evolutionary pathways to resistance” (eLife, 2021).

Regarding `CCOc1cc(C=C2C(=O)NC(=O)NC2=O)ccc1OCC(=O)O` [CD17], the Ki in assay [1] is 8.2 µM and 8.18 µM; in assay [2], 3.7 µM; in assay [3], 6.7 µM and 6.73 µM; in assay [4] it was 3.7 µM and 3.65 µM; in assay [5], 9.2 µM; in assay [6] it was 1.37 µM. For the same compound, the Ki is 2.04 µM in assay [7] and 0.74 µM in [8]. Besides, the inhibition at 200 µM in assay [1] (setting [17]), in assay [2] (setting [18]), in [3] (setting [19]) and in assay [4] (setting [20]) was over 30% each time. Also, the IC50 in assay [9] amounted to 5050 µM; in assay [10], 1920 µM; in assay [11], 932 µM; in assay [12] (setting [21]), 1770 µM.

Regarding `COc1cc([C@@H]2CC(c3c(O)[nH]c(=O)n(C)c3=O)=NN2)cc(OC)c1OC` [CD15-6], the half-inhibitory concentration (IC50) in assay [9] came out at 159 µM; in [10] it was 172 µM; in assay [11] it was 167 µM; in assay [12] (setting [21]), 175 µM.

For the compound `Cc1cc(NS(=O)(=O)c2ccc(N)cc2)no1` [Sulfamethoxazole, reference compound], the IC50 came out at 6.7 µM in assay [13] (CD15-3-evolved cells, cross resistance test, growth rate) and 2.9 µM in assay [12].

As for `COc1cc(Cc2cnc(N)nc2N)cc(OC)c1OC` [TMP, trimethoprim, reference compound], the IC50 in assay [12] amounted to 0.4 µg/mL; in assay [12] (read-out: Bacterial growth inhibition IC50) it was 1.3 µM.

For `COc1cc([C@H]2CC(=O)Nc3nc(N)[nH]c(=O)c32)ccc1O` [CD08], the Ki in assay [1] is 6.9 ± 0.6 µM; in assay [2] it was 3.2 ± 0.4 µM; in assay [3], 4.9 ± 1.4 µM; in assay [4] it was 3.1 ± 0.6 µM. Also, the inhibition at 200 µM in [1] (setting [17]), in assay [2] (setting [18]), in assay [3] (setting [19]) and in assay [4] (setting [20]) was over 30% throughout.

Regarding `Cn1c(=O)[nH]c(O)c(C2=NN[C@H](c3ccc4c(c3)OCO4)C2)c1=O` [CD15-4], the half-inhibitory concentration (IC50) in assay [9] is 92 µM; in assay [10] it was 123 µM; in assay [11], 67 µM; in [12] (setting [21]) it was 302 µM.

In the case of `Cn1c(=O)[nH]c(O)c(C2=NN[C@H](c3cccc4ccccc34)C2)c1=O` [CD15-3], the inhibitory constant (Ki) was 5.52 µM in assay [1], 2.51 µM in assay [2], 3.48 µM in assay [3] and 0.98 µM in assay [4]. Moreover, in assay [8] (CD15-3 17.56–200 µM, 25°C), the “inhibitory activity against human DHFR” value was “no inhibitory activity”. Also, the IC50 in [9] worked out at 57 µM; in [10] it was 73 µM; in [11] it was 48 µM; in assay [13] (CD15-3-evolved strain Evolved 1, M9 media), 132 µM; in [13] (CD15-3-evolved strain Evolved 2, M9 media), 166 µM; in [13] (CD15-3-evolved strain Evolved 3, M9 media), 170 µM. In addition, the IC50 in assay [13] (range over strains evolved under CD15-3, read-out: IC50 of evolved strains) was 132 to 170 µM; in assay [15], 72 µM; in assay [12] (setting [21]), 71.8 µM; in [12] (read-out: IC50 against WT and TMP-resistant strains), 50 to 75 µM. The “efficacy relative to TMP on L28R E. coli variant strain” value in [11] (growth inhibition IC50, better than TMP) is given as “about 2.4 fold”. Moreover, the “effect of folA mix supplement on drug-induced growth inhibition” value in assay [14] (M9 media with folA mix) is reported as “partially rescued”. In addition, in [14] (pBAD D27F, 0.005% arabinose), the “effect of inactive D27F DHFR overexpression on drug-induced growth inhibition” value is “no growth recovery”. In assay [14] (pBAD folA, 0.005% arabinose), the “effect of WT DHFR overexpression on drug-induced growth inhibition” value is “partially rescued growth”. In addition, the median cell length in [16] (WT cells treated at IC50 concentration, 4 hours) turned out to be 2.34 µm; in assay [16] (evolved cells treated at IC50 concentration), 1.26 µm.

Take `COc1ccc([C@@H]2CC(c3c(O)[nH]c(=O)n(C)c3=O)=NN2)cc1O` [CD15-2]: the IC50 in assay [9] is 125 µM; in [10], 119 µM; in [11], 88 µM; in assay [12] (setting [21]), 129 µM.

In the case of `CSc1nc2nc(N)nc(N)c2s1` [CD20], the “inhibition of DHFR catalytic activity” value is “showed inhibition” in [1] (setting [17]), “showed inhibition” in [2] (setting [18]), “showed inhibition” in [3] (setting [19]) and “not” in [4] (setting [20]).

Consider `COc1ccc([C@@H]2CC(c3c(O)[nH]c(=O)n(C)c3=O)=NN2)cc1OC` [CD15], for which the inhibitory constant (Ki) in assay [1] worked out at 3.35 µM; in assay [2] it was 1.42 µM; in assay [3] it was 2.43 µM; in assay [4], 1.04 µM; in [5] it was 3.26 µM; in assay [6], 0.56 µM. For the same compound, the Ki in assay [7] was 0.61 µM; in assay [8] it was 0.38 µM. Also, the inhibition at 200 µM in assay [1] (setting [17]), in assay [2] (setting [18]), in assay [3] (setting [19]) and in [4] (setting [20]) was over 30% each time. In addition, the IC50 in assay [9] was 176 µM; in assay [10], 197 µM; in assay [11], 159 µM; in assay [12] (setting [21]), 170 µM.

Take `C[C@H](Oc1ccc(C=C2C(=O)NC(=O)NC2=O)cc1)C(=O)O` [CD17-3]: the IC50 in [9] is 2840 µM; in [10], 2150 µM; in [11], 907 µM; in assay [12] (setting [21]), 2950 µM.

With `O=C(O)COc1c(Cl)cc(C=C2C(=O)NC(=O)NC2=O)cc1Cl` [CD17-4], the IC50 in assay [11] was 1860 µM.
